Tests used:
Assay type in all cases: in vivo
[1] = test system: ducksalad (Heteranhera limosa); assay: Test B flooded paddy test, visual plant response rating; settings: 250 g ai/ha, Flood, applied to paddy water, 2-leaf stage, evaluated after 13 to 15 days
In short: (§1)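 2-leaf plants; pots flooded 3 cm over soil surface; compound dosed straight into the floodwater; depth kept constant; greenhouse 13–15 d; visual rating vs. untreated controls.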

[2] = test system: barnyardgrass (Echinochloa crus-galli); assay: as above; settings: 250 g ai/ha, Flood, applied to paddy water, 2-leaf stage, evaluated after 13 to 15 days
In short: as §1

[3] = test system: sedge, umbrella (small-flower umbrella sedge, Cyperus difformis); assay: as above; settings: 250 g ai/ha, Flood, applied to paddy water, 2-leaf stage, evaluated after 13 to 15 days
In short: as §1

[4] = test system: rice (Oryza sativa); assay: as above; settings: 250 g ai/ha, Flood, applied to paddy water, 2-leaf stage, evaluated after 13 to 15 days
In short: as §1

[5] = test system: kochia (Kochia scoparia); assay: Test A preemergence, visual plant response rating; settings: for Kochia plant response rating: 125 g ai/ha, preemergence, 0 to 100 scale, 0 no effect, 100 complete control; for Kochia plant response rating (0 to 100 scale): 500 g ai/ha Preemergence, approx. 10 days
In short: (§2)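 Greenhouse pot test in loam–sand soil mix: compound in a surfactant-containing non-phytotoxic solvent applied preemergence (directed soil spray) or postemergence (one- to two-leaf plants, 2–10 cm). Injury scored visually after ~10 days, 0–100.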

[6] = test system: foxtail, giant (giant foxtail, Setaria faberii); assay: Test A preemergence, visual plant response rating; settings: for Foxtail, Giant plant response rating: 125 g ai/ha, preemergence, 0 to 100 scale, 0 no effect, 100 complete control; for Foxtail, Giant plant response rating (0 to 100 scale): 500 g ai/ha Preemergence, approx. 10 days
In short: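 Compared with untreated controls, treated plants received a visual injury score on a 0–100 scale around 10 days after application. The compound, in a non-phytotoxic solvent with surfactant, was given as a preemergence soil spray or postemergence at the one- to two-leaf stage.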

[7] = test system: Italian ryegrass (Lolium multiflorum); assay: Test A preemergence, visual plant response rating; settings: for Ryegrass, Italian plant response rating: 125 g ai/ha, preemergence, 0 to 100 scale, 0 no effect, 100 complete control; for Ryegrass, Italian plant response rating (0 to 100 scale): 500 g ai/ha Preemergence, approx. 10 days
In short: as §2

[8] = test system: barnyardgrass (Echinochloa crus-galli); assay: Test A preemergence, visual plant response rating; settings: for Barnyardgrass plant response rating: 125 g ai/ha, preemergence, 0 to 100 scale, 0 no effect, 100 complete control; for Barnyardgrass plant response rating (0 to 100 scale): 500 g ai/ha Preemergence, approx. 10 days
In short: as §2

[9] = test system: ragweed (common ragweed, Ambrosia elatior); assay: Test A preemergence, visual plant response rating; settings: for Ragweed plant response rating: 125 g ai/ha, preemergence, 0 to 100 scale, 0 no effect, 100 complete control; for Ragweed plant response rating (0 to 100 scale): 500 g ai/ha Preemergence, approx. 10 days
In short: as §2

[10] = test system: pigweed (Amaranthus retroflexus); assay: Test A preemergence, visual plant response rating; settings: for Pigweed plant response rating: 125 g ai/ha, preemergence, 0 to 100 scale, 0 no effect, 100 complete control; for Pigweed plant response rating (0 to 100 scale): 500 g ai/ha Preemergence, approx. 10 days
In short: as §2

[11] = test system: kochia (Kochia scoparia); assay: Test A postemergence, visual plant response rating; settings: for Kochia plant response rating (0 to 100 scale): 500 g ai/ha, postemergence, 0 is no effect, 100 is complete control; for Kochia plant response rating: Postemergence, 125 g ai/ha, 0 to 100 scale (0 no effect, 100 complete control)
In short: as §2

[12] = test system: foxtail, giant (giant foxtail, Setaria faberii); assay: Test A postemergence, visual plant response rating; settings: for Foxtail, Giant plant response rating (0 to 100 scale): 500 g ai/ha, postemergence, 0 is no effect, 100 is complete control; for Foxtail, Giant plant response rating: Postemergence, 125 g ai/ha, 0 to 100 scale (0 no effect, 100 complete control)
In short: as §2

[13] = test system: Italian ryegrass (Lolium multiflorum); assay: Test A postemergence, visual plant response rating; settings: for Ryegrass, Italian plant response rating (0 to 100 scale): 500 g ai/ha, postemergence, 0 is no effect, 100 is complete control; for Ryegrass, Italian plant response rating: Postemergence, 125 g ai/ha, 0 to 100 scale (0 no effect, 100 complete control)
In short: as §2

[14] = test system: corn (Zea mays); assay: Test A postemergence, visual plant response rating; settings: for Corn plant response rating (0 to 100 scale): 500 g ai/ha, postemergence, 0 is no effect, 100 is complete control; for Corn plant response rating: Postemergence, 125 g ai/ha, 0 to 100 scale (0 no effect, 100 complete control)
In short: as §2

[15] = test system: barnyardgrass (Echinochloa crus-galli); assay: Test A postemergence, visual plant response rating; settings: for Barnyardgrass plant response rating (0 to 100 scale): 500 g ai/ha, postemergence, 0 is no effect, 100 is complete control; for Barnyardgrass plant response rating: Postemergence, 125 g ai/ha, 0 to 100 scale (0 no effect, 100 complete control)
In short: as §2

[16] = test system: ragweed (common ragweed, Ambrosia elatior); assay: Test A postemergence, visual plant response rating; settings: for Ragweed plant response rating (0 to 100 scale): 500 g ai/ha, postemergence, 0 is no effect, 100 is complete control; for Ragweed plant response rating: Postemergence, 125 g ai/ha, 0 to 100 scale (0 no effect, 100 complete control)
In short: as §2

[17] = test system: pigweed (Amaranthus retroflexus); assay: Test A postemergence, visual plant response rating; settings: for Pigweed plant response rating (0 to 100 scale): 500 g ai/ha, postemergence, 0 is no effect, 100 is complete control; for Pigweed plant response rating: Postemergence, 125 g ai/ha, 0 to 100 scale (0 no effect, 100 complete control)
In short: as §2

[18] = test system: blackgrass (Alopecurus myosuroides); assay: Test A postemergence, visual plant response rating; settings: for Blackgrass plant response rating (0 to 100 scale): 500 g ai/ha, postemergence, 0 is no effect, 100 is complete control; for Blackgrass plant response rating: Postemergence, 125 g ai/ha, 0 to 100 scale (0 no effect, 100 complete control)
In short: as §2

[19] = test system: wheat (Triticum aestivum); assay: Test A postemergence, visual plant response rating; settings: for Wheat plant response rating (0 to 100 scale): 500 g ai/ha, postemergence, 0 is no effect, 100 is complete control; for Wheat plant response rating: Postemergence, 125 g ai/ha, 0 to 100 scale (0 no effect, 100 complete control)
In short: as §2

[20] = test system: galium (catchweed bedstraw, Galium aparine); assay: Test A postemergence, visual plant response rating; settings: for Galium plant response rating (0 to 100 scale): 500 g ai/ha, postemergence, 0 is no effect, 100 is complete control; for Galium plant response rating: Postemergence, 125 g ai/ha, 0 to 100 scale (0 no effect, 100 complete control)
In short: as §2

| Compound | Plant response rating, Ducksalad (0 to 100 scale, 0 is no effect, 100 is complete control) [1] | Plant response rating, Barnyardgrass (0 to 100 scale, 0 is no effect, 100 is complete control) [2] | Plant response rating, Sedge, Umbrella (0 to 100 scale, 0 is no effect, 100 is complete control) [3] | Plant response rating, Rice (0 to 100 scale, 0 is no effect, 100 is complete control) [4] | Kochia plant response rating [5] | Kochia plant response rating (0 to 100 scale) [5] | Foxtail, Giant plant response rating [6] | Foxtail, Giant plant response rating (0 to 100 scale) [6] | Ryegrass, Italian plant response rating [7] | Ryegrass, Italian plant response rating (0 to 100 scale) [7] | Barnyardgrass plant response rating [8] | Barnyardgrass plant response rating (0 to 100 scale) [8] | Ragweed plant response rating [9] | Ragweed plant response rating (0 to 100 scale) [9] | Pigweed plant response rating [10] | Pigweed plant response rating (0 to 100 scale) [10] | Kochia plant response rating (0 to 100 scale) [11] | Kochia plant response rating [11] | Foxtail, Giant plant response rating (0 to 100 scale) [12] | Foxtail, Giant plant response rating [12] | other results |
| --- | --- | --- | --- | --- | --- | --- | --- | --- | --- | --- | --- | --- | --- | --- | --- | --- | --- | --- | --- | --- | --- |
| CON=C(c1ccccc1C1CC1)c1c(O)c(C)nn(C)c1=O [Compound 105] | 0 | 0 | 0 | 0 | 10 | 70 | 60 | 90 | 90 | 100 | 60 | 80 | 50 | 60 | 70 | 70 | 80 | 70 | 80 | 70 | Ryegrass, Italian plant response rating (0 to 100 scale) [13]: 90; Ryegrass, Italian plant response rating [13]: 90; Corn plant response rating (0 to 100 scale) [14]: 30; Corn plant response rating [14]: 10; Barnyardgrass plant response rating (0 to 100 scale) [15]: 80; Barnyardgrass plant response rating [15]: 40; Ragweed plant response rating (0 to 100 scale) [16]: 90; Ragweed plant response rating [16]: 90; Pigweed plant response rating (0 to 100 scale) [17]: 70; Pigweed plant response rating [17]: 60; Blackgrass plant response rating (0 to 100 scale) [18]: 90; Blackgrass plant response rating [18]: 80; Wheat plant response rating (0 to 100 scale) [19]: 80; Wheat plant response rating [19]: 60; Galium plant response rating (0 to 100 scale) [20]: 90; Galium plant response rating [20]: 90 |
| Cc1nn(C)c(=O)c(C(=NOCC=CCl)c2ccc(F)c3ccccc23)c1O [Compound 106] | 0 | 0 | 0 | 0 | 0 | 20 | 100 | 100 | 60 | 90 | 50 | 90 | 40 | 80 | 50 | 80 | 50 | 20 | 70 | 60 | Ryegrass, Italian plant response rating (0 to 100 scale) [13]: 100; Ryegrass, Italian plant response rating [13]: 70; Corn plant response rating (0 to 100 scale) [14]: 30; Corn plant response rating [14]: 20; Barnyardgrass plant response rating (0 to 100 scale) [15]: 90; Barnyardgrass plant response rating [15]: 80; Ragweed plant response rating (0 to 100 scale) [16]: 90; Ragweed plant response rating [16]: 70; Pigweed plant response rating (0 to 100 scale) [17]: 80; Pigweed plant response rating [17]: 70; Blackgrass plant response rating (0 to 100 scale) [18]: 90; Blackgrass plant response rating [18]: 80; Wheat plant response rating (0 to 100 scale) [19]: 50; Wheat plant response rating [19]: 0; Galium plant response rating (0 to 100 scale) [20]: 90; Galium plant response rating [20]: 80 |
